Calls of active or inactive are those of the source. No cut-off for these calls is given here.
Columns and labels:
[1] = molecular target: T1, Eukaryotic translation initiation factor 2-alpha kinase 3 (Homo sapiens, UniProt Q9NZJ5); assay: Activation of PERK in HEK293 cells transfected with ATF4 response element preincubated for 30 mins followed by tunicamycin addition and measured after 6 hrs by One-Glo reagent based plate reader assay; format: cell-based
T1 sequence (Q9NZJ5 whole entry): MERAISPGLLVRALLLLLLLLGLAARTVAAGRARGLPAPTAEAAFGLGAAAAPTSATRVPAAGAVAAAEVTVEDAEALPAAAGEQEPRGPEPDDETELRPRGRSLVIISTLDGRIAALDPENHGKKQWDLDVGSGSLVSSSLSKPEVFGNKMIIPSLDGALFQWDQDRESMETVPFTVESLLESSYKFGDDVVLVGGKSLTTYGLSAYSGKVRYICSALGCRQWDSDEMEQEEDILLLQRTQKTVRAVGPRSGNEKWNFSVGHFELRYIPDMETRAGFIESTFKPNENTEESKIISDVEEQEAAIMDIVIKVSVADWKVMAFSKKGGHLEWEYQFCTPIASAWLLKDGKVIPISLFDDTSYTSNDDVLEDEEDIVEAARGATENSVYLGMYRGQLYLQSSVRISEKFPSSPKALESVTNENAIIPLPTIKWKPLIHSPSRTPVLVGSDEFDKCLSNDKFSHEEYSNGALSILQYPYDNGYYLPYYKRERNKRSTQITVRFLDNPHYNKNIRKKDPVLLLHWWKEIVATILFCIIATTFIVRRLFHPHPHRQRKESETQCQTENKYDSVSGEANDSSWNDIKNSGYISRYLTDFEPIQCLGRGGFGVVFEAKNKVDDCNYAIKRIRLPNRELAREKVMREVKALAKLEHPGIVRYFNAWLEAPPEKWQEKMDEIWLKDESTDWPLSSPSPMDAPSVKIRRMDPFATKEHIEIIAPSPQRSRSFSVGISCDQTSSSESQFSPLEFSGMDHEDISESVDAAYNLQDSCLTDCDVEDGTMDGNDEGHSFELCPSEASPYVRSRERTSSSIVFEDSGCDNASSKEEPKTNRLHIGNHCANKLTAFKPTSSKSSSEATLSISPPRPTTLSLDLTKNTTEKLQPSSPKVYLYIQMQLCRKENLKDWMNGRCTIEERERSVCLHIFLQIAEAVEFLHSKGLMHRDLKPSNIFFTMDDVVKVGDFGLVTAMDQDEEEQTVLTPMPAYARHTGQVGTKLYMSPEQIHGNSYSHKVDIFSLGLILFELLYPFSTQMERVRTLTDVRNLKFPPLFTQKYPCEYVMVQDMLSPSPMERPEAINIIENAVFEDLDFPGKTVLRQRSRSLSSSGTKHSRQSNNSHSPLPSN

[2] = molecular target: T2, Eukaryotic translation initiation factor 2-alpha kinase 3 (Homo sapiens) (UniProt Q9NZJ5); assay: Activation of PERK in HEK293 cells transfected with ATF4 response element assessed as unbound effective concentration preincubated for 30 mins followed by tunicamycin addition and measured after 6 hrs by One-Glo reagent based plate reader assay; format: cell-based; settings: filed as activator, time 6.5 hrs
T2 sequence (whole entry): T1 sequence (Q9NZJ5 whole entry)

physchem = settings: 1-octanol/PBS, pH 7.4
[3] = Protein binding in HEK293 cells assessed as free fraction; format: ADME, cell-based; settings: human
[4] = Intrinsic clearance in rat hepatocytes assessed per 10^4 cells at 1 uM measured upto 120 mins by UPLC-MS/MS analysis; format: ADME, cell-based, Hepatocyte; settings: 2 h
[5] = Intrinsic clearance in human hepatocytes assessed per 10^4 cells at 1 uM measured upto 120 mins by UPLC-MS/MS analysis; format: ADME, cell-based, Hepatocyte; settings: 2 h
[6] = Unbound fraction in Sprague-Dawley rat plasma at 1 mg/kg, iv measured upto 24 hrs; format: ADME, organism-based
[7] = Unbound clearance in Sprague-Dawley rat plasma at 1 mg/kg, iv measured upto 24 hrs; format: ADME, organism-based; settings: in vivo
[8] = Volume of distribution at steady state in Sprague-Dawley rat at 1 mg/kg, iv measured upto 24 hrs; format: ADME, organism-based; settings: in vivo, read-out: Vdss
[9] = Unbound volume of distribution at steady state in Sprague-Dawley rat at 1 mg/kg, iv measured upto 24 hrs; format: ADME, organism-based; settings: in vivo
[10] = Half-life in Sprague-Dawley rat at 1 mg/kg, iv measured upto 24 hrs; format: ADME, organism-based; settings: in vivo
[11] = Cmax in Sprague-Dawley rat at 3 mg/kg, po measured upto 24 hrs; format: ADME, organism-based; settings: in vivo
[12] = Unbound Cmax in Sprague-Dawley rat at 3 mg/kg, po measured upto 24 hrs; format: ADME, organism-based; settings: in vivo
[13] = Unbound AUC in Sprague-Dawley rat at 3 mg/kg, po measured upto 24 hrs; format: ADME, organism-based; settings: in vivo
[14] = Oral bioavailability in Sprague-Dawley rat at 3 mg/kg measured upto 24 hrs; format: ADME, organism-based; settings: in vivo; for F: po, 3 mg/kg, 24 h
eIF-2-alpha kinase GCN2 [15] = molecular target: T3, eIF-2-alpha kinase GCN2 (Homo sapiens, UniProt Q9P2K8); assay: Inhibition of GCN2 (unknown origin) using GFP-eIF2alpha as substrate incubated for 1.5 hrs in presence of ATP by plate reader analysis
Cytochrome P450 3A4 = Cytochrome P450 3A4 (Homo sapiens, UniProt P08684); assay: Inhibition of CYP3A4 in human liver microsomes using midazolam substrate incubated for 5 mins in presence of NADPH by UPLC-MS/MS analysis
eIF-2-alpha kinase GCN2 [16] = molecular target: T3, eIF-2-alpha kinase GCN2; assay: Activation of GCN2 in HEK293 cells transfected with ATF4 response element preincubated for 30 mins followed by halofuginone addition and measured after 6 hrs by One-Glo reagent based plate reader assay; format: cell-based
eIF-2-alpha kinase GCN2 [17] = molecular target: T3, eIF-2-alpha kinase GCN2; settings: HEK293, filed as activator, time 6.5 hrs
Mus musculus [18] = assay: In vivo activation of GCN2 in BALB/c nude mouse xenografted with human HT-1080 cells assessed as […] ATF4 protein level in tumor at 0.3 to 3 mg/kg after 6 hrs; format: functional, organism-based; settings: dose 0.3-3 mg/kg
Mus musculus [19] = assay: In vivo activation of GCN2 in BALB/c nude mouse xenografted with human HT-1080 cells assessed as […] ASNS protein level in tumor at 0.3 to 3 mg/kg after 6 hrs; format: functional, organism-based; settings: dose 0.3-3 mg/kg
MOLM-16 = assay: Antitumor activity against human MOLM16 cells xenografted in BALB/c nude mouse assessed as reduction in tumor growth at 1 to 3 mg/kg administered twice a day for 17 days; format: functional, organism-based; settings: dose 1-3 mg/kg, time 17.0 day

T3 sequence (Q9P2K8 whole entry): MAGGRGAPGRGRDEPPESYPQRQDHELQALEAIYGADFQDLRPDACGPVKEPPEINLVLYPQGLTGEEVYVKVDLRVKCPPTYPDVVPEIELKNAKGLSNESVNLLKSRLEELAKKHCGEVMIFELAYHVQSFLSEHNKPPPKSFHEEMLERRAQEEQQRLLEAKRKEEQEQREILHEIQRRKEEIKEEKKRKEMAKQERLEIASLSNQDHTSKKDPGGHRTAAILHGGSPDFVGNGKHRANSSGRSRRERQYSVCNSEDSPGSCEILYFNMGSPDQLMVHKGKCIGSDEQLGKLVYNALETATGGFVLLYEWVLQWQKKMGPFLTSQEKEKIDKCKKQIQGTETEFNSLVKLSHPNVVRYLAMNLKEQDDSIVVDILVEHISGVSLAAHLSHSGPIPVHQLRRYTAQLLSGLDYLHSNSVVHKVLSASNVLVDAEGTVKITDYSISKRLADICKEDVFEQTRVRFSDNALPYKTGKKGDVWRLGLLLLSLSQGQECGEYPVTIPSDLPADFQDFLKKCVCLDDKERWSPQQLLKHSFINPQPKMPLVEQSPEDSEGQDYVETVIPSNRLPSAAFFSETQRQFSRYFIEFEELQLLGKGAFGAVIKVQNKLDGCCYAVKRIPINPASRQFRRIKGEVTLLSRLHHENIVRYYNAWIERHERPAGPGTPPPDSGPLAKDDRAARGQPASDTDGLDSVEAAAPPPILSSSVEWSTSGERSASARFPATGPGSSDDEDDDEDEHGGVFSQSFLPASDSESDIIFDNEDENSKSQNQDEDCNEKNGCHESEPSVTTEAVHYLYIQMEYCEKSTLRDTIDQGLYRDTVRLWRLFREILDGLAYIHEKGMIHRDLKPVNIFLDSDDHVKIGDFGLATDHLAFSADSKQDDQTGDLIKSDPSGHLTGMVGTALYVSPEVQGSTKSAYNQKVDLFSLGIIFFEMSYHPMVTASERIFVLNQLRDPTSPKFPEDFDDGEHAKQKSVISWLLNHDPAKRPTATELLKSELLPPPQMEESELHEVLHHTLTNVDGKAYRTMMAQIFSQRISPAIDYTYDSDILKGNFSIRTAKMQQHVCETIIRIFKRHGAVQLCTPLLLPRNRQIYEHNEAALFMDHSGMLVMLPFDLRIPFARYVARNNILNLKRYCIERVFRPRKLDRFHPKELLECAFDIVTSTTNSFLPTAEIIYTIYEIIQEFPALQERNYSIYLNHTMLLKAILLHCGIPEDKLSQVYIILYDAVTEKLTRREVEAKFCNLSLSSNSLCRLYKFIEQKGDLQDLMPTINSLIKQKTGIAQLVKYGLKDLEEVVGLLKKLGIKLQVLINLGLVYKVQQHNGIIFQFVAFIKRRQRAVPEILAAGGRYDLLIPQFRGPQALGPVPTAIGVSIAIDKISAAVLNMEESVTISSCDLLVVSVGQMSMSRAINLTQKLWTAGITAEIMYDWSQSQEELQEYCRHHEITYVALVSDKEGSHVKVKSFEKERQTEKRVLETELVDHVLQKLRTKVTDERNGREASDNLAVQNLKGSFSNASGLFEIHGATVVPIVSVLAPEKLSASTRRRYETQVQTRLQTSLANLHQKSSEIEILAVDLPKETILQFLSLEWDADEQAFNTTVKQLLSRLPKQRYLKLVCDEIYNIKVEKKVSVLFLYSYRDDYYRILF
Cytochrome P450 3A4, sequence (P08684 whole entry): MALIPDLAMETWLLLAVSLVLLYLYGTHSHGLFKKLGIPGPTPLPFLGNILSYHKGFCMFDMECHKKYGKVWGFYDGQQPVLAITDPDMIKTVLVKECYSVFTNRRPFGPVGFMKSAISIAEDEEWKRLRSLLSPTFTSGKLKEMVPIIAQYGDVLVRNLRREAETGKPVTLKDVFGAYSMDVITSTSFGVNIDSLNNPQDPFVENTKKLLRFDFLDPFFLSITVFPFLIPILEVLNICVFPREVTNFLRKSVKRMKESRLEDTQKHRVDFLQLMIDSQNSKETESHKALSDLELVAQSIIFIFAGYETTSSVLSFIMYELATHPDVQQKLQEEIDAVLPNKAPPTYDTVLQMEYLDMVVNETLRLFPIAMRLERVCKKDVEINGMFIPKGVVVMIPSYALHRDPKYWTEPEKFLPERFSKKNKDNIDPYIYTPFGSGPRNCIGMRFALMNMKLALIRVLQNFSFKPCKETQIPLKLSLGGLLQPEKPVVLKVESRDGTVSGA

Row | Structure (SMILES) | EC50 [1] [µM] | fEC50 [2] [nM] | logD at 1 h (physchem) | fraction unbound [3] | CLH [4] [µL/min] | CLH [5] [µL/min] | fraction unbound at 24 h [6] | CL free [7] [mL/min/kg] | Vd [8] [L/kg] | fVdss [9] [L/kg] | half-life [10] [h] | Cmax [11] [µM] | fCmax [12] [nM] | fAUC [13] [µM·h] | F [14] [%] | further results
1 | CNC(=O)c1ncn2c(F)c(-c3c(F)ccc(NS(=O)(=O)c4cc(Cl)cnc4OC)c3F)ccc12 | 1.5 | 350 | 3 | – | – | – | – | – | – | – | – | – | – | – | – | –
2 | COc1ncc(Cl)cc1S(=O)(=O)Nc1ccc(F)c(-c2ccc3c(-c4ncc[nH]4)ncn3c2)c1F | 1.7 | 170 | – | 0.1 | 15 | 2.8 | 0.001 | 390 | 0.1 | 93 | 2.4 | 14.3 | 16 | 0.093 | 70 | –
3 | COc1ncc(Cl)cc1S(=O)(=O)Nc1ccc(F)c(-c2ccc3c(-c4ncc[nH]4)n[nH]c3c2F)c1F | 1.4 | 55 | – | 0.04 | 8.2 | 4.4 | 0.001 | 740 | 0.09 | 180 | 3.8 | 0.62 | 0.31 | 0.0011 | 1.5 | –
4 | CNC(=O)c1ncn2c1CC[C@H](c1c(F)ccc(NS(=O)(=O)c3cc(F)cnc3OC)c1F)C2 | 1.5 | 1000 | – | 0.71 | 13 | 7.8 | 0.012 | 340 | 0.19 | 15 | 0.9 | 14.2 | 180 | 0.14 | 95 | –
5 | CNC(=O)c1ncn2nc(-c3c(F)ccc(NS(=O)(=O)c4cc(Cl)cnc4OC)c3F)ccc12 | 0.87 | 280 | – | 0.32 | 5.9 | 3.8 | – | – | – | – | – | – | – | – | – | –
6 | CNC(=O)c1ncn2cc(-c3c(F)ccc([N-]S(=O)(=O)c4cc(Cl)cnc4OC)c3F)ncc12.[K+] | – | – | – | – | – | – | – | – | – | – | – | 40 | 28 | 0.14 | – | bioavailability ([14]; Sprague-Dawley): 88%
7 | CNC(=O)c1ncn2cc(-c3c(F)ccc(NS(=O)(=O)c4cc(F)cnc4OC)c3F)ccc12 | > 10 | – | 2.3 | – | – | – | – | – | – | – | – | – | – | – | – | –
8 | CNC(=O)c1ncn2c1CC[C@H](c1c(F)ccc(NS(=O)(=O)c3cc(Cl)cnc3OC)c1F)C2 | 0.46 | 240 | – | 0.45 | – | – | – | – | – | – | – | – | – | – | – | IC50 (eIF-2-alpha kinase GCN2 [15]): 0.069 µM; IC50 (Cytochrome P450 3A4): 33 µM; EC50 (eIF-2-alpha kinase GCN2 [16]): 0.24 µM; fEC50 (eIF-2-alpha kinase GCN2 [17]): 110 nM
9 | CNC(=O)c1ncn2cc(-c3c(F)ccc(NS(=O)(=O)c4cc(C#N)cnc4OC)c3F)ccc12 | > 10 | – | 1.6 | – | – | – | – | – | – | – | – | – | – | – | – | –
10 | CNC(=O)c1n[nH]c2c(F)c(-c3c(F)ccc(NS(=O)(=O)c4cc(Cl)cnc4OC)c3F)ccc12 | 6.1 | 180 | – | 0.03 | 11 | 5.8 | 0.002 | 88 | 0.11 | 56 | 8.9 | 10.4 | 20 | 0.13 | 25 | –
11 | CNC(=O)c1ncn2cc(-c3c(F)ccc(NS(=O)(=O)c4cc(Cl)cnc4OC)c3F)ccc12 | 4.9 | 1100 | – | 0.22 | 9.8 | 9 | 0.001 | 930 | 0.1 | 320 | 4.3 | 20.6 | 6.2 | 0.029 | 54 | –
12 | CNC(=O)c1ncn2cc(-c3c(F)ccc(NS(=O)(=O)c4cc(Cl)cnc4OC)c3F)ncc12 | – | 2400 | – | – | – | – | – | – | – | – | – | – | – | – | – | Activity (Mus musculus [18]): Active; Activity (Mus musculus [19]): Active; Activity (MOLM-16): Active
13 | CNC(=O)c1ncn2cc(-c3c(F)ccc(NS(=O)(=O)c4cc(F)cnc4C)c3F)ccc12 | 5.8 | – | 1.9 | – | – | – | – | – | – | – | – | – | – | – | – | –

Reference: ChEMBL document CHEMBL5543122, “Discovery of HC-7366: An Orally Bioavailable and Efficacious GCN2 Kinase Activator” (J Med Chem, 2024)
